Measured values reported in US20050180972A1, “Anti-CD20 antibody-drug conjugates for the treatment of cancer and immune disorders” (priority 2002, published 2005).
Where two headings read alike, the source gives them in different places. Square brackets hold non-standard residues; d marks the D form. Peptide text beside a SMILES is read from it. * marks the point of attachment. Dolaproine = CO[C@@H]([C@@H]1CCCN1)[C@@H](C)C(=O)O; Dil = CC[C@H](C)[C@H](NC)[C@@H](CC(=O)O)OC; X1 = C[C@@H](N*)[C@@H](O)c1ccccc1; NMeV = CN[C@H](C(=O)O)C(C)C

Tests used:
[1] = tested on: Daudi, Ramos, Raji and Karpas 299 cells; experiment: Relative potency of unconjugated drugs versus doxorubicin across cell lines; format: cell-based, human
Protocol: (§1) Cytotoxicity assays. Cytotoxicity was measured by Alamar Blue (Biosource International) dye reduction assay according to manufacturers directions (Nakayama et al. Journal Of Immunological Methods 1997; 204:205-208). Briefly, a 40% solution (w/v) of Alamar Blue was freshly prepared in complete media just prior to adding to cultures. The Alamar Blue solution was added at cell densities of 10^5 cells/ml for the Ramos, Raji, and Karpas cell lines, and at a cell density of 4×10^5 cells/ml for the Daudi cell line. After 92 h following drug exposure. Alamar Blue solution was added to cells to constitute 10% culture volume. The cells were incubated for 4 h and dye reduction measured on a Fusion HT fluorescent plate reader (Packard Instruments, Meriden, Conn.).
(§2) Cell sensitivity to unconjugated drugs. The cells were initially evaluated for relative sensitivity to doxorubicin and MMAE. Cells were exposed to drugs for 2 h, washed, replated in fresh media and incubated for an additional 92 h. Four h. prior to harvest, cells were incubated with Alamar Blue, a reducible dye that provides readout of cell viability (Nakayarna et al., 1997).

Daudi cells = experiment: Alamar Blue cytotoxicity assay, Daudi cells; format: cell-based, human
Protocol: as §1, §2
(§3) Sensitivity of cells to ADCs. […] As described above, 4 h prior to harvest, cells were incubated with Alamar Blue and cell viability assessed.

Ramos cells [2] = experiment: Alamar Blue cytotoxicity assay, Ramos cells; format: cell-based, human
Protocol: as §1, §2, §3

Raji cells = experiment: Alamar Blue cytotoxicity assay, Raji cells; format: cell-based, human
Protocol: as §1, §2, §3

Karpas 299 cells = experiment: Alamar Blue cytotoxicity assay, CD20-negative Karpas 299 cells; format: cell-based, human
Protocol: as §1, §2, §3

Ramos cells [3] = experiment: Confocal microscopy for mAb/ADC trafficking; conditions: 5 ug/ml, 37 C, 1, 4 and 24 h
Description: Microscopy for mAb/ ADC trafficking. […] At the designated times cells were harvested by centrifugation, fixed and permeabilized by paraformaldehyde/saponin (Cytofix/Cytoperm™ Buffer, BD PharMingen, San Diego, Calif.). After washing with the Perm/Wash™ buffer (BD PharMingen) and blocking with goat IgG, cells were stained with a goat anti-human IgG Fc_specific FITC conjugate (Jackson ImmunoResearch Laboratories, Inc., West Grove, Pa.). The localization of fluorescence signals was then visualized using a Deltavision confocal fluorescence microscope equipped with digital analysis software.
Internalization of the mAb-drug conjugate.

Ramos NHL cells = experiment: Subcutaneous Ramos NHL xenograft model; format: in vivo, SCID mice; conditions: intraperitoneal, every 4 days for 3 injections, 3 mg/kg
Protocol: For the localized non Hodgkin's lymphoma model, 2×10^6 Ramos NHL cells were implanted into the right flank of SCID mice. […] Treatment consisted of intraperitoneal injections of mAb or ADC every 4 days for 3 injections. Tumor size was determined using the formula (L×W^2)/2.
SCID mice were implanted with 5×10^6 Ramos cells into the flank and the tumor size in each group of 5 animals was allowed to progress to an average size of 100 mm^3 before therapy with mAb or ADCs was initiated. Treatment consisted of intraperitoneal injections of mAb or ADC every 4 days for 3 injections using 1 and 3 mg/kg/injection.

Ramos cells [4] = experiment: Induction of apoptosis, Annexin V-FITC / propidium iodide staining; conditions: 5 μg/ml, after 24 hr of incubation
Protocol: Selective induction of Apoptosis. […] At the designated times cells were removed from cultures and stained with Annexin V-FITC and propidium iodide (PI) as described in Materials and Methods. The range of apoptotic cells (Annexin V^+/PI^−) and of dead cells (Annexin V^+/PI^+) was determined by flow cytometric analysis of each population.
Induction of Apoptosis. […] At designated time points cells were removed from cultures and the degrees of apoptosis and cell death were determined by Annexin V binding to the cell surface and loss of propidium iodide (PI) inclusion respectively (FIG. 5).

CD20-positive cells = experiment: Cytotoxicity of ADCs, summary statement; format: cell-based, human; conditions: following brief exposure
Protocol: as §1, §3

[5] = ADC, 2 h binding, washed, additional 92 h, Daudi
[6] = ADC, 2 h binding, washed, additional 92 h, Raji
[7] = ADC, 2 h binding, washed, additional 92 h, Karpas

Compound: CC[C@H](C)[C@@H]([C@@H](CC(=O)N1CCC[C@H]1[C@H](OC)[C@@H](C)C(=O)N[C@H](C)[C@@H](O)c1ccccc1)OC)N(C)C(=O)[C@@H](NC(=O)[C@H](C(C)C)N(C)C)C(C)C [Auristatin E]
- times more potent than doxorubicin [1]: > 50 times

Compound: COc1cccc2c1C(=O)c1c(O)c3c(c(O)c1C2=O)C[C@@](O)(C(=O)CO)C[C@@H]3O[C@H]1C[C@H](N)[C@H](O)[C@H](C)O1 [Doxorubicin, doxorubicin, reference compound]
- IC50 (Daudi cells; Homo sapiens, unconjugated drug, 2 h exposure, washed, additional 92 h, Daudi (CD20+), read-out: IC50): 140 nM
- IC50 (Ramos cells [2]; Homo sapiens, unconjugated drug, 2 h exposure, washed, additional 92 h, Ramos (CD20+), read-out: IC50): 225 nM
- IC50 (Raji cells; Homo sapiens, unconjugated drug, 2 h exposure, washed, additional 92 h, Raji (CD20+), read-out: IC50): 200 nM
- IC50 (Karpas 299 cells; Homo sapiens, KARPAS-299, unconjugated drug, 2 h exposure, washed, additional 92 h, Karpas (CD20-), read-out: IC50): 650 nM

Compound: CC[C@H](C)[C@@H]([C@@H](CC(=O)N1CCC[C@H]1[C@H](OC)[C@@H](C)C(=O)N[C@H](C)[C@@H](O)c1ccccc1)OC)N(C)C(=O)[C@@H](NC(=O)[C@@H](NC)C(C)C)C(C)C [MMAE, monomethyl Auristatin E] (H-[NMeV]V[Dil][Dolaproine]-X1)
- Activity Ratio MMAE/Doxorubicin (Daudi cells; Daudi (CD20+)): 215.4
- IC50 (Daudi cells; Homo sapiens, Daudi): 0.65 nM
- IC50 (Ramos cells [2]; Homo sapiens, Ramos): 1 nM
- Activity Ratio MMAE/Doxorubicin (Ramos cells [2]; Ramos (CD20+)): 225.0
- IC50 (Raji cells; Homo sapiens, Raji): 3.5 nM
- Activity Ratio MMAE/Doxorubicin (Raji cells; Raji (CD20+)): 57.1
- IC50 (Karpas 299 cells; Homo sapiens, KARPAS-299): 3 nM
- Activity Ratio MMAE/Doxorubicin (Karpas 299 cells; Karpas (CD20-)): 216.7

Compound: Rituxan-vcDox [reference compound]
- IC50 (Daudi cells; [5]): >50 µg/mL
- IC50 (Ramos cells [2]; ADC, 2 h binding, washed, additional 92 h, Ramos): >50 µg/mL
- IC50 (Raji cells; [6]): >50 µg/mL
- toxicity at the highest levels tested (Raji cells; Raji cells, up to 50 ug/ml): did not affect significant toxicity
- IC50 (Karpas 299 cells; [7]): >50 µg/mL
- cellular localization (equatorial section) (Ramos cells [3]): remained primarily on the surface

Compound: Rituximab-valine-citrulline-monomethyl Auristatin E [Rituxan-vcMMAE]
- delay in tumor growth (Ramos NHL cells): significant delay in tumor growth
- IC50 (Daudi cells; [5]): 2 µg/mL
- IC50 (Ramos cells [2]; ADC on Ramos cells (FIG. 4B)): 0.045 µg/mL
- percentage of apoptotic cells (Ramos cells [4]): 19%
- percentage of dead cells (Ramos cells [4]): 60%
- IC50 (CD20-positive cells): 0.05 µg/mL
- IC50 (Raji cells; ADC on Raji cells (FIG. 4A)): 1.4 µg/mL
- IC50 (Raji cells; [6]): 1.5 µg/mL
- IC50 (Karpas 299 cells; [7]): >50 µg/mL
- cellular localization (equatorial section) (Ramos cells [3]): localized to the cell interior within 4 h
